# Reference: US20100168067A1, “BIOMARKERS FOR BISPHOSPHONATE-RESPONSIVE BONE DISORDERS” (UCL BUSINESS PLC, priority 2006, published 2010)
# System: total hip mineralisation in subjects treated for OP
# [1] = response by genotype TT vs TG/GG at rs2297480, annualised change in total hip densitometry, 95% CI in brackets
# Procedure: Genetic samples were obtained from subjects enrolled in an ongoing clinical programme for treatment of OP through the use of regular intravenous Pamidronate (30 mg three monthly).
# By such methodology, 53 subjects (each with two densitometric estimates taken in the first 24 month of Pamidronate therapy) were respectively assigned drug response phenotypes according to their display of ongoing demineralisation (‘response failure’) or stable or improving mineralising (‘response success’). This was achieved by comparison of derived annualised rates of change in projected densitometric estimates of total hip mineralisation.
# DNA was extracted from blood samples using standard organic phase methods and PCR amplification and DNA sequencing was carried out using standard protocols (dye-terminator sequencing using an ABI3100 automated DNA sequencer).
smiles,measurement,setting,value
NCCC(O)(P(=O)(O)O)P(=O)(O)O [Pamidronate],number of subjects with 'response failure' (ongoing demineralisation),"TT genotype at rs2297480, intravenous Pamidronate 30 mg three monthly, first 24 months, 53 subjects",2
same,odds ratio for the >-2.7 cutoff,[1],12.0833 (95% CI: 2.2961 to 63.5874)
same,odds ratio for the pos/neg cutoff,[1],3.1818 (95% CI: 1.0192 to 9.9327)
